The results in this text go back to paper PMC4270796, “Ethenoguanines Undergo Glycosylation by Nucleoside 2′-Deoxyribosyltransferases at Non-Natural Sites” (PLoS ONE, 2014).

For this test, the target named is T1, L. helveticus PDT (Lactobacillus helveticus, UniProt Q8RLY5).
T1 construct: gene ptd; recombinant in E. coli BL21(DE3)pLysS from pETLH4; ammonium sulfate and Sephacryl S-200, no tag mentioned; C-terminal residue Tyr167; active site shared with adjacent monomer; 3 monomers per ASU
Briefly: X-ray crystallography, […] Å, soaked crystals. The test is classed as binding. Particulars: soak up to 6 mM; active site, four overlapping orientations; also deoxyribosylated at N1 and N7 with dGuo donor.

T1 sequence (Q8RLY5 entry or part of it): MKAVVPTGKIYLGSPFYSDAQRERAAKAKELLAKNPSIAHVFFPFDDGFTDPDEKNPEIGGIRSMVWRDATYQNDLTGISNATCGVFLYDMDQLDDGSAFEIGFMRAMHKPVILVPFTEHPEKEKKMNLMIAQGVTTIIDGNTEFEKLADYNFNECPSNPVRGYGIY

For the compound `O=c1[nH]c2nccn2c2nc[nH]c12` [compound 1, 8,9-dihydro-9-oxoimidazo[2,1-b]purine], the “X-ray crystallography, 2.1 Å, soaked crystals” value is recorded as “the substrate binds in at least four different, overlapping orientations”.
